Literature values, collected in patent publication US12569533B2, “Bruising and filler compositions and methods for use” (Alastin Skincare, Inc., priority 2021, dated 2026).

Test system: hyaluronic acid level
Settings: ex vivo human skin model

CCCCCCCC(=O)CCc1ccc(O)c(OC)c1 [Hydroxymethoxyphenyl decanone]
stimulation of dermal hyaluronic acid level versus placebo (dermal): 259% | stimulation of epidermal hyaluronic acid level versus placebo (epidermal): 198%
